According to patent US20170143712A1, “Methods of Treating Cancers, Immune and Autoimmune Diseases, and Inflammatory Diseases Based on BTK Occupancy and BTK Resynthesis Rate” (Acerta Pharma B.V., priority 2014, published 2017):
Entries after “also recorded” stand apart in the source; their conditions may differ.

Tests used:
[1] = Plasma pharmacokinetics in healthy volunteers; type: in vivo, human; details: 15 mg QD Day 1 vs Day 7; 15 mg and 25 mg studies
Experimental: Forty, healthy adult, non-tobacco using men and women were enrolled in the study. A 15 mg Formula (II) dose (1×15 mg capsule) was administered once daily (QD) to each subject for 7 consecutive days (Days 1 to 7) with a washout period (6 days). PD blood samples were collected from each subject before dosing on Day 1, throughout the study, and up to 144 hours after dosing on Day 7 to characterize Formula (II) PD effects. PK sampling for Formula (II) was also collected before dosing on Day 1, throughout the study, and for 24 hours after dosing on Day 7. Additionally, potential Formula (II) safety issues were monitored through physical examination, vital sign measurements, 12 lead electrocardiograms (ECGs), AEs and clinical laboratory tests.
The mean measured plasma concentration of Formula (II) versus time data (PK data) and mean occupancy of BTK by Formula (II) (PD data) were fitted with biophase compartment PK and PD models, respectively to enable prediction of PK and PD for different doses, dose regimens and dose durations. The biophase compartment PK model used to fit Formula (II) concentration versus time data is depicted in FIG. 1(A). The model is a naïve, mean data, two-compartment PK model with a delay d(1,3) for oral absorption. Fitting (optimization) was accomplished via weighed least squares. […]

BTK [2] = molecular target: BTK (Homo sapiens, UniProt Q06187); test: p-BTK after ex vivo BCR stimulation in CD19+/CD5+ CLL tumor cells (phospho-flow cytometry); details: CLL patients on oral treatment
S6 phosphorylation = test: Basal and anti-IgM induced S6 phosphorylation in splenocytes after oral dosing of mice; type: in vivo, mouse; details: single oral 25 mg/kg; rank order Formula (II)>ibrutinib>Formula (XVII)
Experimental: (§1) B cell stimulation through the B cell receptor (BCR) with antibodies (e.g., anti-IgM) results in the activation of BTK and subsequent cellular changes, including the upregulation of various cell surface receptors. Measuring the inhibition of BCR induced protein phosphorylation downstream of Btk, and the inhibition of surface receptor upregulation provides a way to assess the Btk inhibitor activity. In the first study, the BTK target occupancy in splenocytes was measured over time, providing evidence for BTK resynthesis in the tissue compartment of interest.
(§2) Mice were sacrificed at 3, 6, 12, 18, and 24 hours after treatment with the BTK inhibitors (FIG. 27A, FIG. 27B, and FIG. 27C). Spleens were harvested and splenocyte preparations were made for flow cytometry analysis of B cell functions. Fresh or cryopreserved splenocytes were cultured with a-IgM to stimulate BCR, and the up-regulation of CD69, an early functional marker of B cell activation, was analyzed by flow cytometry.
A downstream marker of BTK activity, S6 phosphorylation, was also monitored in this study. […] In a second study, the effects of another inhibitor of BTK that covalently inactivates the kinase, Formula (XXI), were compared with Formula (II) to evaluate the return of BCR function and B cell activation, as illustrated in FIG. 29A and FIG. 29B.

BTK [3] = molecular target: T1, BTK (Canis lupus familiaris, UniProt A0A8I3P3Z9); test: BTK target occupancy in peripheral B-cells and lymph node fine needle aspirates of dogs with spontaneous lymphoma; type: in vivo, dog
T1 construct: Purified peripheral B-cells and FNA samples were snap-frozen for measurement of BTK target occupancy; from tissue; host or cells: peripheral blood CD21+ B cells and lymph node fine needle aspirates of companion dogs with spontaneous lymphoma, dosed in vivo
Experimental: Dogs were administered Formula (II) orally once daily and evaluations occurred every 7 days for the first 4 weeks of the study, then every 14 days thereafter. PBMCs and lymph node fine needle aspirates (lymphoma patients only) were obtained for PD analysis on day 0 at time 0 hr and 3 hr, and again at pre-dose (Cmin) on day 7 of drug administration. In each cohort, PK analysis was performed in 2 dogs on day 14 of the study consisting of blood sampling at 0, 0.5, 1, 2, 3, 4, 6, 8, 12, and 24 hr following drug administration.
Peripheral blood mononuclear cells (PBMCs) were isolated from blood and the CD21+ B-cells were enriched by positive magnetic selection. For fine needle aspiration (FNA) samples, erythrocytes were lysed with ammonium chloride lysis buffer. Purified peripheral B-cells and FNA samples were snap-frozen for measurement of BTK target occupancy. BTK target occupancy was measured using an ELISA with anti-BTK as a capture antibody and a biotinylated active site probe for BTK, followed by streptavidin-HRP as a detection reagent. The ex vivo incubation with Formula (II) provided a baseline signal for each sample. BTK occupancy in the B cell lysates from peripheral B-cells and lymph node FNA preparations was calculated as a percentage of the control after correction for baseline chemoluminescence. All samples were run in quadruplicate.

[4] = tested on: BCR signaling through BTK; test: Anti-IgM induced CD86 and CD69 on splenocyte B cells of CIA mice; type: in vivo, mouse; details: splenocytes 3 hr after last dosing on day 14
Experimental: FIG. 45 illustrates changes in a functional measure of BCR signalling through the CD86 marker. Mouse splenocytes were isolated from spleens from mice that were part of the mouse CIA study semi-therapeutic protocol, 3 hr after the last dosing on day 14 of the treatment and cryopreserved. After thawing, inhibition of anti-IgM-induced PD markers CD86 and CD69 on mouse splenocyte B cells were measured. Error bars represent the standard deviation for the 3 sets of splenocytes analyzed.
FIG. 46 illustrates changes in a functional measure of BCR signalling through the CD69 marker. Mouse splenocytes were isolated from spleens from mice that were part of the mouse CIA study semi-therapeutic protocol, 3 hr after the last dosing on day 14 of the treatment and cryopreserved. After thawing, inhibition of anti-IgM-induced PD markers CD86 and CD69 on mouse splenocyte B cells were measured. Error bars represent the standard deviation for the 3 sets of splenocytes analyzed.
Inhibition of the BCR signaling through BTK was evaluated by ex vivo stimulation of splenocytes using IgM and evaluation of CD86 and CD69 as functional responses of BCR stimulation.

B cell receptor (BCR) = test: Ex vivo anti-IgM induced CD86 and CD69 expression on splenocyte B cells after oral dosing of mice; type: in vivo, mouse; details: single oral 25 mg/kg
Experimental: as §1, §2

[5] = 3 hr after administration, all cohorts

T1 sequence (A0A8I3P3Z9 1-664): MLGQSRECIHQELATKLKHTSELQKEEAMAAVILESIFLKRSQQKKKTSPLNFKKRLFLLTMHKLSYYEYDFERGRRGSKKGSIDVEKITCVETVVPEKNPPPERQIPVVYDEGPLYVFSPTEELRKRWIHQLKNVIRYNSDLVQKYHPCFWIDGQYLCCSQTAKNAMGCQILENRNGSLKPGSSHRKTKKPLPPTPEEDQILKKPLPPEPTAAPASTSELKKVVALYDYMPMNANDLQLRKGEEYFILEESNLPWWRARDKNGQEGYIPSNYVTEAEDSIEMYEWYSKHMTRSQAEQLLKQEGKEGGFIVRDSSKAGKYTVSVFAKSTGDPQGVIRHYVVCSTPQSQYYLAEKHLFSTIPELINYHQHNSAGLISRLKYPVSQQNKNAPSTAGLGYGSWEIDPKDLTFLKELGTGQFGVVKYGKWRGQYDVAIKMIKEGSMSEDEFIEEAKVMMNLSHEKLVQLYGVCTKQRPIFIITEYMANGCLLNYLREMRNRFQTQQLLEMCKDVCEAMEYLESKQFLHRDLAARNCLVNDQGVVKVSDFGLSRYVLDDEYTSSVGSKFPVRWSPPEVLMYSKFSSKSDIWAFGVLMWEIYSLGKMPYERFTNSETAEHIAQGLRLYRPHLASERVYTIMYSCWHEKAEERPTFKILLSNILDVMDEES
BTK (Homo sapiens, UniProt Q06187), sequence (Q06187 whole entry): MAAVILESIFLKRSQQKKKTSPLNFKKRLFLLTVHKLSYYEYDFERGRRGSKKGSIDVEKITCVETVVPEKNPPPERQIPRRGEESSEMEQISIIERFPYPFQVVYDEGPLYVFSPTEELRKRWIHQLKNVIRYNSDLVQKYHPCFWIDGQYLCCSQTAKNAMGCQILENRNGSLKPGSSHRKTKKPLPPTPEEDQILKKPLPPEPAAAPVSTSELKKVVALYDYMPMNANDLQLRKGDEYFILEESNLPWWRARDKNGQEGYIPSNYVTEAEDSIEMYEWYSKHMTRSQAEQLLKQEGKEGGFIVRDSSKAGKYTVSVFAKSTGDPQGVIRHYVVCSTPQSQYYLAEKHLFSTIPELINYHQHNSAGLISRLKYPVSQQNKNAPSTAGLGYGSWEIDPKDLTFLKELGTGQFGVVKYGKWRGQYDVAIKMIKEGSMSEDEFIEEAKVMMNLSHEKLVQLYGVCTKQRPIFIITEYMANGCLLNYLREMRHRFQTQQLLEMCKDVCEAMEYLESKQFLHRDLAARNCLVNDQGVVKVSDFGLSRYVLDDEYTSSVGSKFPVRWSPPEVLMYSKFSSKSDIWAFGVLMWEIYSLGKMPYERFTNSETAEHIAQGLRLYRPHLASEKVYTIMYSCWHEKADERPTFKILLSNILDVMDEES

SMILES: CC#CC(=O)N1CCC[C@H]1c1nc(-c2ccc(C(=O)Nc3ccccn3)cc2)c2c(N)nccn12 [Formula (II), (S)-4-(8-amino-3-(1-(but-2-ynoyl)pyrrolidin-2-yl)imidazo[1,5-a]pyrazin-1-yl)-N-(pyridin-2-yl)benzamide]
- accumulation or change in PK after repeat dosing [1]: no apparent accumulation; also recorded: little to no accumulation or change in PK after repeat dosing
- BCR-mediated signaling through BTK (p-BTK after ex vivo BCR stimulation) (BTK [2]): significantly inhibited; also recorded: decreased BTK activation
- basal state and anti-IgM induced S6 phosphorylation (S6 phosphorylation): inhibited both basal state and anti-IgM induced S6 phosphorylation
- BTK occupancy in lymph node FNAs (BTK [3]; [5]): > 90%
- BTK occupancy in peripheral B-cells (BTK [3]; [5]): ≥ 90%
- BTK occupancy in peripheral blood sample (BTK [3]; day 7 pre-dose, steady state (24 hr QD or 12 hr BID after dose)): Full BTK occupancy
- BTK occupancy in tumor bearing lymph nodes (BTK [3]; pre-dose Day 7): 82-88%
- BCR-mediated signaling (anti-IgM induced CD86 and CD69) [4]: dose-responsive decreases in BCR-mediated signaling
- inhibition at 25 mg/kg (B cell receptor (BCR); Mus musculus, B-cell, 3-24 hours, read-out: CD69 % inhibition over the entire time course): 84.3%
- inhibition of ex vivo anti-IgM induced responses in B cells (B cell receptor (BCR); 3 hours post-dose): near complete inhibition
- inhibition of CD86 and CD69 expression (B cell receptor (BCR); persisting for 24 hours): partial inhibition
